{"source": "patent US11951171B2", "about": "“Polypeptide EXP and its drug delivery system as well as extracellular vesicle extraction” (TIANJIN MEDICAL UNIVERSITY, priority 2019, dated 2024)", "key": {"CD81": {"biological_target": "T1, CD81 (Mus musculus, UniProt P35762)", "T1 construct": "endogenous in cells; host or cells: C2C12 cells (lysate)", "T1 sequence (P35762 1-236)": "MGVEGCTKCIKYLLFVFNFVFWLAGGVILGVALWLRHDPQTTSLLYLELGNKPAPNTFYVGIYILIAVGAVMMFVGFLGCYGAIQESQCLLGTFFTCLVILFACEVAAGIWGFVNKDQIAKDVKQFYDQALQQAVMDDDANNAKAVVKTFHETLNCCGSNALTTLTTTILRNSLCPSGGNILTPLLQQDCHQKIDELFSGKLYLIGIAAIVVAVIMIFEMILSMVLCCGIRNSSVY", "assay": "EXP target detection by co-immunoprecipitation, silver staining and Western blot", "type": "binding", "conditions": "Flag-tagged peptide on anti-flag beads, C2C12 lysate; band about 45 kD and 25 kD", "experimental": "(§1) (A) Silver staining and Western blot were used to detect the interest proteins band obtained by co-immunoprecipitation. Flag-tagged CP05 or EXP was incubated with anti-flag coated beads, and followed by co-incubation with cell lysates after removing the free peptides which were unconjugated with beads. The specific enriched proteins in the cell protein lysate were fished by using the polypeptide. Then the size distribution of the fishing strip was detected by silver staining, and the expression of different Tetraspanin family proteins in the fishing strip was detected by Western blot. […] (B)Immunoprecipitation was used to catch the target of EXP. The results are the same as above. […]"}, "CD63": {"biological_target": "T2, CD63 (Mus musculus, UniProt P41731)", "T2 construct": "endogenous in cells; host or cells: C2C12 cells (lysate)", "T2 sequence (P41731 1-238)": "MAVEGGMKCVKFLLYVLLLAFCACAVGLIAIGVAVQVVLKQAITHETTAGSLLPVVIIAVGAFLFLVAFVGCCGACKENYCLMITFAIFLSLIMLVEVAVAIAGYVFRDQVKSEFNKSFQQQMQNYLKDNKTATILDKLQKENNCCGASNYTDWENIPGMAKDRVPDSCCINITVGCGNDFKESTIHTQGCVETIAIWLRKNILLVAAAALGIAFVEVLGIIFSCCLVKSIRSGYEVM", "assay": "EXP target detection by co-immunoprecipitation, silver staining and Western blot", "type": "binding", "conditions": "Flag-tagged peptide on anti-flag beads, C2C12 lysate; band about 45 kD and 25 kD", "experimental": "as §1"}, "[1]": {"tested_on": "exosomes recovered by EXP", "assay": "Binding efficiency of CP05 and EXP with serum exosomes recovered by EXP", "conditions": "serum exosomes recovered by EXP (FIG. 6E)"}, "C2C12 cells": {"tested_on": "C2C12 cells", "assay": "Binding stability: intracellular co-localization of peptides with exosomes (confocal microscopy, FRET)", "type": "cell-based, murine", "experimental": "The intracellular co-localization of CP05 and EXP with exosomes was examined with confocal microscopy at different timepoints. FAM-labeled CP05 and EXP were incubated with DiI-labeled exosomes and then added into C2C12 cells.\nThe meanings of the signs in the figure are as follows: DAPI means staining result for nuclei by DAPI, Peptide(488,520) refers to the excitation and emission wavelength of FAM-labeled CP05 and EXP; EXO(Dil)(540,620) refers to the excitation and emission wavelength for DiI-labeled exosomes; Merge is the superposition of above three staining results; FRET means fluorescence resonance energy transfer. Optical energy resonance transfer is an energy transfer phenomenon between two fluorescent molecules that are very close to each other. When the emission spectrum of the donor fluorescent molecule overlaps with the absorption spectrum of the acceptor fluorescent molecule, and the distance between two molecules is within the range of 10 nm, a […] energy transfer occurs. In the figure, the FAM-Peptide is the donor fluorescent molecule and DiI-EXO is the acceptor fluorescent molecule. […] EXOCP05 is the staining result of exosomes combined with CP05 sequence which is recorded in the prior art Chinese Patent No. CN201510520565.7, and EXOEXP refers to the staining result of the combination of EXP of the present invention and exosomes. […]"}, "[2]": {"tested_on": "MVmyo (microvesicles derived from differentiated muscle cells)", "assay": "Binding efficiency of EXP and CP05 to microvesicles (flow cytometer)", "conditions": "flow cytometer (FIG. 8C)", "text": "(A)Western blot is used to identify and compare the expression of biomarker proteins of MV and exosomes. It's shown by the results that Tetraspanin family proteins like CD81, CD9 and CD63 were expressed in MV, but mitochondrial marker protein Cytochrome C was not expressed. (B) particle size distribution of MV from different sources were detected by Nanosight. MVmyot means microvesicles derived from differentiated muscle cells; MVurine means microvesicles derived from urine. (C) Examination of the binding efficiency of EXP and CP05 to MVmyo was detected by flow cytometer. […] (E)Western blot was used to detect the recovery of dystrophin protein expression after MVEXPPMO treatment. […]"}, "[3]": {"tested_on": "exosomes derived from murine myotubes(EXOmyotube), cardiac sphere cells (CDC) (EXOCDC) and human serum (EXOserum)", "assay": "Binding efficiency with exosomes from different sources (flow cytometry)", "experimental": "FAM-labeled CP05 or EXP was co-incubated with exosomes derived from murine myotubes(EXOmyotube), cardiac sphere cells (CDC) (EXOCDC) and human serum (EXOserum), and the binding efficiency was detected with flow cytometry. It's shown by the results that the binding efficiency of CP05 to exosomes from different sources is about 70%, and the binding efficiency of the same amount of EXP with exosomes from corresponding sources was about 90%.\nExperimental example 5: Comparison on binding efficiency of EXP and exosomes from different sources. • (1) 0.06 μg FAM-labeled CP05 and 0.06 μg of different peptides were respectively mixed with 10 μg exosome from dC2C12, CDC, serum, and DPBS was used to make up a deficiency to 200 μl. • (2) The mixture was incubated for 2-4 hrs at 4° C. under rotation in vertical shaker. • (3) The binding efficiency was detected with flow cytometry."}}, "data": [{"sequence": "CRHKMWTVKSRL (EXP)", "values": [{"measurement": "protein band fished from cell lysate, confirmed by Western blot as CD81", "setting": "CD81", "result": "distinct protein bands"}, {"measurement": "protein band fished from cell lysate, confirmed by Western blot as CD63", "setting": "CD63", "result": "distinct protein bands"}, {"measurement": "binding efficiency with recovered exosomes", "setting": "[1]", "result": 95.9, "unit": "%"}, {"measurement": "co-localization with EXO in cells at 48 hours", "setting": "C2C12 cells", "result": "still detectable"}, {"measurement": "binding efficiency to MVmyot compared with CP05", "setting": "[2]", "result": "significantly higher than that of CP05"}, {"measurement": "binding efficiency to exosomes from serum compared with CP05", "setting": "[3]; exosomes from serum", "result": "significantly higher than that of CP05"}, {"measurement": "binding efficiency to exosomes from different sources", "setting": "[3]; same amount of FAM-labeled peptide, EXOmyotube, EXOCDC, EXOserum", "result": "about 90%"}]}]}
